Structures are written as SMILES. Where two headings read alike, the source gives them in different places.

One assay concerns the target ROCK 2 (Homo sapiens, UniProt O75116). In words: Dundee kinase screen re-test (standard format and 4 hour pre-incubation). Particulars: ROCK 2, 0.5µM. It is filed as biochemical. The protocol:
(§1) Prior to determining its cellular activity, we carried out a screen to assess its selectivity against a panel of 131 protein kinases under conditions that would not distinguish between a reversible or irreversible mode of action. […] These 13 kinases and 29 additional kinases, selected for their known sensitivity to other inhibitors within the purine series, were then tested in a modified screening format in which the assay was repeated following a 4-hr pre-incubation (Table S3B). […] However, conformational flexibility around the active site may promote such an interaction with a residue from another part of the structure ([Martin et al., 2012]).
(§2) Table S3, Related to Figure 4. NCL-0006300 protein kinase selectivity. […]
(§3) Dundee protein kinase screen (Bain et al., 2007). Values given are % activity remaining and are the average of duplicate measurements: 0-25% (red), 26-50% (yellow), 51-80% […]
(§4) (black) and above 81% (green). […]
(§5) (B) Selected kinases were re-tested in the Dundee kinase screen against NU6300 at a single concentration of 0.5 µM both in the standard assay format and following a 4 hour pre-incubation in the presence of NU6300. Kinases which have very low activity after the 4 hour incubation so that results might not be wholly reliable are boxed in salmon. Kinases where the activity after a 4 hour pre-incubation is < 50% that in the standard assay format are highlighted in red.

The next assay concerns the target Src (Homo sapiens, UniProt P12931). Described as above. In kind it is biochemical. The procedure: as §1, §2, §3, §4, §5
For a further assay, the target named is RSK1 (Homo sapiens, UniProt Q15418). The description is as above. It is filed as biochemical. The note with it: RSK1, 0.5µM. The procedure: as §1, §2, §3, §4, §5
Sequence of RSK1 (Q15418 whole entry): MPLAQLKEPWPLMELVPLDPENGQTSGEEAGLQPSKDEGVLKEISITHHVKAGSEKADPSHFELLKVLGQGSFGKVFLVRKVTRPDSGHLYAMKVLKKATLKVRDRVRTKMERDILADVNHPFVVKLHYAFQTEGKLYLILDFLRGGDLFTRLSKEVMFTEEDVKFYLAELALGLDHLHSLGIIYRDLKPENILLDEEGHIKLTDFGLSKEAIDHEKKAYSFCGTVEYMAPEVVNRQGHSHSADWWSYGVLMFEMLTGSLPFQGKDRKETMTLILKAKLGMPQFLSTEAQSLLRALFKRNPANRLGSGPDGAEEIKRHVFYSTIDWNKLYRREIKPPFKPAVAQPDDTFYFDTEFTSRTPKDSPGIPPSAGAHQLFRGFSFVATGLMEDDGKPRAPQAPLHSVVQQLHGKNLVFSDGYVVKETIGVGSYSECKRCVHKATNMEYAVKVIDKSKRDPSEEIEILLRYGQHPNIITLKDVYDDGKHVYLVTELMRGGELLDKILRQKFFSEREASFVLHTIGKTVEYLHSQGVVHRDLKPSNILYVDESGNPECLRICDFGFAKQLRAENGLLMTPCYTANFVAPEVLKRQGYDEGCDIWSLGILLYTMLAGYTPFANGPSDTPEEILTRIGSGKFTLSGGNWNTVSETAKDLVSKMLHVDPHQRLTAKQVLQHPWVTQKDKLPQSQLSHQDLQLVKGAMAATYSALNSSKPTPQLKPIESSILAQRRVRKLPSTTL
In another assay the target is T1, TAK1 (Homo sapiens, UniProt O43318).
T1 sequence (O43318 1-303 limits assumed): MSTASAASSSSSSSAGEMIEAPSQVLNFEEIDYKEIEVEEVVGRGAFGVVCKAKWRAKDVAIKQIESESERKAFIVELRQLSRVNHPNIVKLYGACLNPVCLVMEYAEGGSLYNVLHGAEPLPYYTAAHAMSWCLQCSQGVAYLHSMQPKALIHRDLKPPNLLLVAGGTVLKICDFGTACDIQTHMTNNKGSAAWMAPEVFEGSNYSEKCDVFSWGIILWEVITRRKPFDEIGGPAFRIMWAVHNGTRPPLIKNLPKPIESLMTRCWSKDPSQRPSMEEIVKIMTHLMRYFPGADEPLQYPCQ
The assay is described as above. Particulars: TAK1, 0.5µM. In kind it is biochemical. The protocol: as §1, §2, §3, §4, §5

In a further assay the target is SIK2 (Homo sapiens, UniProt Q9H0K1). Described as above. In kind it is biochemical. Particulars: SIK2, 0.5µM. The protocol: as §1, §2, §3, §4, §5
Sequence of SIK2 (Q9H0K1 whole entry): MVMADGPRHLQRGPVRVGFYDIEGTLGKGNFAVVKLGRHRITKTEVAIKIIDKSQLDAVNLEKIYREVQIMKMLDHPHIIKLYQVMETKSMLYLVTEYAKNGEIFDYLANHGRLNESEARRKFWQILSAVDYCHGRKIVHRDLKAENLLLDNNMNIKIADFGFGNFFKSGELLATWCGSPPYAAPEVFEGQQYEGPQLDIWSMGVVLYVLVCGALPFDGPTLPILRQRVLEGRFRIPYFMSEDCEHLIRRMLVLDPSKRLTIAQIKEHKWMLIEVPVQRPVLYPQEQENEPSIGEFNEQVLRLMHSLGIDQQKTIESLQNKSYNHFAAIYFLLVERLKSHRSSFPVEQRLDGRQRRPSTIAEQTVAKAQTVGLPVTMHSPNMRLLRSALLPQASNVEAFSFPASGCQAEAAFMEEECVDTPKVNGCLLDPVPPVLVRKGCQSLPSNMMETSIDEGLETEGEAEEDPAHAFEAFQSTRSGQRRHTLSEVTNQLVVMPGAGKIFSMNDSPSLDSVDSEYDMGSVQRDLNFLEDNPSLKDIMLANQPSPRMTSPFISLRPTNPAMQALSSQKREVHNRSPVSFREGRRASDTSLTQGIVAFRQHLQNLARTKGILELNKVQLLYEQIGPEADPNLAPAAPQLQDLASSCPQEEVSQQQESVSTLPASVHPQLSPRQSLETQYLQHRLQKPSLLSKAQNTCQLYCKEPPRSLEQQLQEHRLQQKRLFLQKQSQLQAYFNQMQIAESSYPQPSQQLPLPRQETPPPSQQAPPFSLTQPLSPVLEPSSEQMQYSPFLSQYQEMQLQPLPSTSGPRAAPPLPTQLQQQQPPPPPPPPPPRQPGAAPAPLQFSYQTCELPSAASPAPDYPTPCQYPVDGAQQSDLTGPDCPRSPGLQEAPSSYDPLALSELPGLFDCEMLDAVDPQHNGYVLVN
In the next assay the target is CDK2-Cyclin A (Homo sapiens, UniProt P24941). In words: ESI-MS of covalent adduct. Set-up: made in house; host or cells: Escherichia coli (CDK2 co-expressed with S. cerevisiae CAK1). Particulars: wild-type CDK2/cyclin A, overnight incubation, vs control. The protocol: To determine whether NU6300 binds covalently to CDK2, recombinant CDK2/cyclin A was incubated overnight with NU6300 and then analyzed by electrospray ionization mass spectrometry (ESI-MS) (Figure S1A). […]
Protein expression and purification
Site-directed mutagenesis of CDK2 was performed using the QuikChange II kit (Stratagene) following the manufacturer’s instructions and verified by DNA sequencing.
Wild-type CDK2 phosphorylated at Thr160, untagged human cyclin A2 (residues 174-432), S. cerevisiae GST–CAK, GST–3C-protease and GST–pRb (residues 792–928) were expressed and purified as previously described (Brown et al., 1999a; Brown et al., 1999b; Welburn and Endicott, 2005). GST-CDK2 mutants were expressed and purified as described (Welburn and Endicott, 2005) and subsequently phosphorylated in vitro by GST-CAK essentially as described in (Morris et al., 2002) except that multiple CAK aliquots were required to enhance the levels of CDK2 Thr160 phosphorylation. […]
CDK2/cyclin A (200 µM) was incubated overnight with 1 mM inhibitor or DMSO, and then dialysed for 8 h with regular replacement of dialysis buffer into HEPES-buffered saline (50 mM HEPES, pH 7.5, 250 mM NaCl, 0.02% MTG). […] Reactions were stopped by addition of SDS-PAGE loading buffer and analyzed by SDS-PAGE. […]

Where [1] appears, read: 4hr RT preincubation, read-out: %Remaining activity at 0.5µM NU6300 - 4hr RT preincubation.
Where [2] appears, read: usual format, read-out: %Remaining activity at 0.5µM NU6300 - Usual assay format.

Sequence of ROCK 2 (O75116 whole entry): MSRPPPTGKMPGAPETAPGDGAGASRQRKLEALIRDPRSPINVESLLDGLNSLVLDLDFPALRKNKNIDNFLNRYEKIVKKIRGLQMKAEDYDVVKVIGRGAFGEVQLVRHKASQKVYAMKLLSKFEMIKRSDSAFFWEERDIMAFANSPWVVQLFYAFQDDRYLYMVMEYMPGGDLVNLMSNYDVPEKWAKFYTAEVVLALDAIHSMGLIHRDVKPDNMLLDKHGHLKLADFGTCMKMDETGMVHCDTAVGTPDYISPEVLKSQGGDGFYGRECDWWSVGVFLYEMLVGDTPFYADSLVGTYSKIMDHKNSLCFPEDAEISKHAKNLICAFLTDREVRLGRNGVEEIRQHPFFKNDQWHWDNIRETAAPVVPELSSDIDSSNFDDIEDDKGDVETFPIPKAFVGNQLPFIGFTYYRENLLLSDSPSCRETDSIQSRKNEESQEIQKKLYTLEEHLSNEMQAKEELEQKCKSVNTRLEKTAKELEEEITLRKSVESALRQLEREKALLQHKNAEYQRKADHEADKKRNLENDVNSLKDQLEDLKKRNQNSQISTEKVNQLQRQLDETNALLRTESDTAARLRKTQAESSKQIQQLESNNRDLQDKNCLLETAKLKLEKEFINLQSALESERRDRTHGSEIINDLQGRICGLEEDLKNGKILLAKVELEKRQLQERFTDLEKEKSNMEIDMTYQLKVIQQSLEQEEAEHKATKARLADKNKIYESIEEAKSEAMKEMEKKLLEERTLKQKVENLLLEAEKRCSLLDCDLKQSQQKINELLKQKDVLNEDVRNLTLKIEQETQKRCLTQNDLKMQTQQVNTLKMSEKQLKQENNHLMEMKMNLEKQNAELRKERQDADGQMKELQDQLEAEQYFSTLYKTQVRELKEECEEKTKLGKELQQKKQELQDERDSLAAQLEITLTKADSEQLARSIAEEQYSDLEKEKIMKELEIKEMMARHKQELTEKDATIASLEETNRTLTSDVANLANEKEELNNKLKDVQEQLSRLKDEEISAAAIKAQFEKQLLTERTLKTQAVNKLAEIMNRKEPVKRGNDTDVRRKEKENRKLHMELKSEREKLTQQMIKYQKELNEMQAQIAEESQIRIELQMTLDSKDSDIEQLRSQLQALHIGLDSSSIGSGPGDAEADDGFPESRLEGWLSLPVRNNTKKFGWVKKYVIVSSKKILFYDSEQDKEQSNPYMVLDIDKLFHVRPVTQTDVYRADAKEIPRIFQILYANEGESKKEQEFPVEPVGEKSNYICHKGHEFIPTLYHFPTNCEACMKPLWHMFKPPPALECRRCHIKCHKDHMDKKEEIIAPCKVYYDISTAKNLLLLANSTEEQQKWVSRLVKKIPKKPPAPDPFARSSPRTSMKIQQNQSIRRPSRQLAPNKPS
Sequence of Src (P12931 whole entry): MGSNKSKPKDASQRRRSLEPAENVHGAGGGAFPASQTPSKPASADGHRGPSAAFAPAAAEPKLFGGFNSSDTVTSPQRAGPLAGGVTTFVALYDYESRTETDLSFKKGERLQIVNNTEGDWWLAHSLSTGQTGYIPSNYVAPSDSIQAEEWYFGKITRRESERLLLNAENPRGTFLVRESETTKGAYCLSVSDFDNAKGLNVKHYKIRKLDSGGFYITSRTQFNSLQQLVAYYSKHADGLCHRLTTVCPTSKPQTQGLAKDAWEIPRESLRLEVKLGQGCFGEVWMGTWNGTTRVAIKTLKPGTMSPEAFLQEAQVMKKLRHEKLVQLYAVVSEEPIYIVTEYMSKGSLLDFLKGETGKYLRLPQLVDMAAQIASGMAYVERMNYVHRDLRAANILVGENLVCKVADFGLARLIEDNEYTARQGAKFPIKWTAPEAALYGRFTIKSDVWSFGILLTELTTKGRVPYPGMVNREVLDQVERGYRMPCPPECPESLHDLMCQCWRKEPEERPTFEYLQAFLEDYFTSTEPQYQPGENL

On to `C=CS(=O)(=O)c1ccc(Nc2nc(OCC3CCCCC3)c3nc[nH]c3n2)cc1` [NU6300, 6-(cyclohexylmethoxy)-N-(4-(vinylsulfonyl)phenyl)-9H-purin-2-amine], for which the remaining activity (commonly the signal under treatment as a percentage of the control signal) at 0.5 µM on ROCK 2 (setting [1]) is 47%; at ROCK 2 (setting [2]), 46%; at Src (setting [1]) it was 54%; at Src (setting [2]), 48%; at RSK1 (setting [1]) it was 131%; on RSK1 (setting [2]), 83%. The remaining activity at 0.5 µM worked out at 24% on TAK1 (setting [1]), 19% at TAK1 (setting [2]), 69% at SIK2 (setting [1]) and 39% on SIK2 (setting [2]). The “increase in the mass of CDK2 (ESI-MS)” value at CDK2-Cyclin A was 414 Da.

The values are drawn from publication PMC4579270, “Identification and Characterization of an Irreversible Inhibitor of CDK2” (Chemistry & Biology, 2015).
